Data from PubChem BioAssay AID256 (DTP/NCI, 2004).
Several values for one entry are separate records, joined by “and”; a condition that tells them apart may be missing. Equal values may be shown once. Inconclusive results and toxic doses are left out. Rule for the calls: active = survival T/C of 150% or more; inactive = T/C below 125% in these data.

Test system: CD2F1 mice, L1210 leukemia ip, survival T/C
Experiment: NCI In Vivo Anticancer Drug Screen. Data for tumor model L1210 Leukemia (intraperitoneal) in CD2F1 (CDF1) mice
Settings: higher = longer survival
In short: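 Tumor-bearing mice (transplanted tumor) were split into treated and vehicle control groups, and the measured endpoint of each treated group was divided by that of its vehicle controls.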

[1] = endpoint: mean survival time, dose: 75.0 mg/kg/injection, schedule: Q01DX001 (ip), vehicle: other
[2] = endpoint: mean survival time, dose: 150.0 mg/kg/injection, schedule: Q01DX001 (ip), vehicle: other
[3] = endpoint: mean survival time, dose: 100.0 mg/kg/injection, schedule: Q01DX009 (ip), vehicle: saline with Tween-80
[4] = endpoint: mean survival time, dose: 200.0 mg/kg/injection, schedule: Q01DX009 (ip), vehicle: saline with Tween-80
[5] = endpoint: mean survival time, dose: 100.0 mg/kg/injection, schedule: Q04DX003 (ip), vehicle: saline with Tween-80
[6] = endpoint: mean survival time, dose: 200.0 mg/kg/injection, schedule: Q04DX003 (ip), vehicle: saline with Tween-80
[7] = endpoint: mean survival time, dose: 400.0 mg/kg/injection, schedule: Q04DX003 (ip), vehicle: saline with Tween-80
[8] = endpoint: mean survival time, dose: 50.0 mg/kg/injection, schedule: Q01DX009 (ip), vehicle: saline with Tween-80

Measured: T/C

CN(N=O)C(=O)N[C@@H](C=O)[C@@H](O)[C@H](O)[C@H](O)CO
inactive: endpoint: mean survival time, dose: 12.5 mg/kg/injection, schedule: Q01DX005 (ip), vehicle: other 104 % of control | endpoint: mean survival time, dose: 19.6 mg/kg/injection, schedule: Q01DX009 (ip), vehicle: other 104 % of control | endpoint: mean survival time, dose: 25.0 mg/kg/injection, schedule: Q01DX001 (ip), vehicle: other 102 % of control and 103 % of control | endpoint: mean survival time, dose: 25.0 mg/kg/injection, schedule: Q01DX005 (ip), vehicle: other 112 % of control | endpoint: mean survival time, dose: 25.0 mg/kg/injection, schedule: Q04DX003 (ip), vehicle: other 102 % of control | endpoint: mean survival time, dose: 29.3 mg/kg/injection, schedule: Q01DX009 (ip), vehicle: other 107 % of control | endpoint: mean survival time, dose: 32.0 mg/kg/injection, schedule: Q03HX008 (ip), vehicle: other 98 % of control | endpoint: mean survival time, dose: 32.0 mg/kg/injection, schedule: Q03HX016 (ip), vehicle: other 98 % of control | endpoint: mean survival time, dose: 37.5 mg/kg/injection, schedule: Q01DX001 (ip), vehicle: other 107 % of control | endpoint: mean survival time, dose: 44.0 mg/kg/injection, schedule: Q01DX009 (ip), vehicle: other 117 % of control | endpoint: mean survival time, dose: 50.0 mg/kg/injection, schedule: Q01DX001 (ip), vehicle: other 94 % of control and 105 % of control | endpoint: mean survival time, dose: 50.0 mg/kg/injection, schedule: Q01DX005 (ip), vehicle: other 117 % of control | endpoint: mean survival time, dose: 50.0 mg/kg/injection, schedule: Q04DX003 (ip), vehicle: other 106 % of control | endpoint: mean survival time, dose: 64.0 mg/kg/injection, schedule: Q03HX008 (ip), vehicle: other 96 % of control | endpoint: mean survival time, dose: 64.0 mg/kg/injection, schedule: Q03HX016 (ip), vehicle: other 95 % of control | [1] 98 % of control | endpoint: mean survival time, dose: 100.0 mg/kg/injection, schedule: Q01DX001 (ip), vehicle: other 113 % of control and 103 % of control | endpoint: mean survival time, dose: 100.0 mg/kg/injection, schedule: Q01DX005 (ip), vehicle: other 116 % of control | endpoint: mean survival time, dose: 100.0 mg/kg/injection, schedule: Q01DX009 (ip), vehicle: saline 111 % of control | endpoint: mean survival time, dose: 100.0 mg/kg/injection, schedule: Q04DX003 (ip), vehicle: other 109 % of control | endpoint: mean survival time, dose: 128.0 mg/kg/injection, schedule: Q03HX008 (ip), vehicle: other 102 % of control | endpoint: mean survival time, dose: 128.0 mg/kg/injection, schedule: Q03HX016 (ip), vehicle: other 108 % of control | [2] 104 % of control | endpoint: mean survival time, dose: 200.0 mg/kg/injection, schedule: Q01DX001 (ip), vehicle: other 118 % of control and 124 % of control and 106 % of control | endpoint: mean survival time, dose: 200.0 mg/kg/injection, schedule: Q01DX009 (ip), vehicle: saline 103 % of control | endpoint: mean survival time, dose: 200.0 mg/kg/injection, schedule: Q04DX003 (ip), vehicle: other 120 % of control | endpoint: mean survival time, dose: 250.0 mg/kg/injection, schedule: Q01DX001 (ip), vehicle: other 109 % of control | endpoint: mean survival time, dose: 256.0 mg/kg/injection, schedule: Q03HX008 (ip), vehicle: other 108 % of control | endpoint: mean survival time, dose: 256.0 mg/kg/injection, schedule: Q03HX016 (ip), vehicle: other 113 % of control | endpoint: mean survival time, dose: 300.0 mg/kg/injection, schedule: Q01DX001 (ip), vehicle: other 119 % of control and 110 % of control | endpoint: mean survival time, dose: 350.0 mg/kg/injection, schedule: Q01DX001 (ip), vehicle: other 113 % of control | endpoint: mean survival time, dose: 400.0 mg/kg/injection, schedule: Q01DX001 (ip), vehicle: other 117 % of control and 102 % of control | endpoint: median survival time, dose: 21.6 mg/kg/injection, schedule: Q01DX009 (ip), vehicle: saline 100 % of control | endpoint: median survival time, dose: 36.0 mg/kg/injection, schedule: Q01DX009 (ip), vehicle: saline 102 % of control | endpoint: median survival time, dose: 60.0 mg/kg/injection, schedule: Q01DX009 (ip), vehicle: saline 109 % of control | endpoint: median survival time, dose: 100.0 mg/kg/injection, schedule: Q01DX009 (ip), vehicle: saline 110 % of control

Clc1ccc(COc2ccc(Cl)cc2Cn2ccnc2)c(Cl)c1
inactive: [3] 101 % of control | [4] 95 % of control | endpoint: mean survival time, dose: 400.0 mg/kg/injection, schedule: Q01DX009 (ip), vehicle: saline with Tween-80 98 % of control

CCCCCCNC(=O)Oc1c(C/C=C/CCC(=O)O)c(OC)c(C)c2c1C(=O)OC2
inactive: endpoint: mean survival time, dose: 100.0 mg/kg/injection, schedule: Q04DX002 (ip), vehicle: saline with Tween-80 108 % of control | endpoint: mean survival time, dose: 200.0 mg/kg/injection, schedule: Q04DX002 (ip), vehicle: saline with Tween-80 112 % of control

CCNC(=O)C(C)Br (stereo not drawn)
inactive: endpoint: mean survival time, dose: 100.0 mg/kg/injection, schedule: Q01DX001 (ip), vehicle: saline 97 % of control | endpoint: mean survival time, dose: 200.0 mg/kg/injection, schedule: Q01DX001 (ip), vehicle: saline 106 % of control

COC1=c2\cccc\c2=N\C(OC)=c2\cccc\c2=N\1
inactive: [5] 101 % of control | [6] 101 % of control | [7] 98 % of control

c1cc2c(c(NC3=NCCCO3)c1)CCCC2
inactive: endpoint: mean survival time, dose: 12.5 mg/kg/injection, schedule: Q04DX003 (ip), vehicle: saline with Tween-80 97 % of control | endpoint: mean survival time, dose: 25.0 mg/kg/injection, schedule: Q04DX003 (ip), vehicle: saline with Tween-80 106 % of control | endpoint: mean survival time, dose: 50.0 mg/kg/injection, schedule: Q04DX003 (ip), vehicle: saline with Tween-80 101 % of control

N#CCc1c(C(N)=O)ncn1C1OC(COP(=O)(O)O)C(O)C1O (stereo not drawn)
inactive: endpoint: median survival time, dose: 12.5 mg/kg/injection, schedule: Q01DX005 (ip), vehicle: water 109 % of control | endpoint: median survival time, dose: 25.0 mg/kg/injection, schedule: Q01DX005 (ip), vehicle: water 104 % of control | endpoint: median survival time, dose: 50.0 mg/kg/injection, schedule: Q01DX005 (ip), vehicle: water 103 % of control | endpoint: median survival time, dose: 100.0 mg/kg/injection, schedule: Q01DX005 (ip), vehicle: water 97 % of control | endpoint: median survival time, dose: 200.0 mg/kg/injection, schedule: Q01DX005 (ip), vehicle: water 97 % of control

C=CC/C=C/C(C)(C)C
inactive: [8] 103 % of control | [3] 100 % of control | [4] 100 % of control

CCOC(=O)N(CCCl)C(=O)C(C)C
inactive: endpoint: mean survival time, dose: 100.0 mg/kg/injection, schedule: Q04DX003 (ip), vehicle: saline 95 % of control | endpoint: mean survival time, dose: 200.0 mg/kg/injection, schedule: Q04DX003 (ip), vehicle: saline 92 % of control | endpoint: mean survival time, dose: 400.0 mg/kg/injection, schedule: Q04DX003 (ip), vehicle: saline 97 % of control

N#Cc1c(Cl)cc(C2(OC(=O)c3ccc([N+](=O)[O-])cc3)C3C=CC2CC3)cc1Cl (stereo not drawn)
inactive: endpoint: median survival time, dose: 25.0 mg/kg/injection, schedule: Q04DX002 (ip), vehicle: saline with Tween-80 100 % of control | endpoint: median survival time, dose: 50.0 mg/kg/injection, schedule: Q04DX002 (ip), vehicle: saline with Tween-80 87 % of control | endpoint: median survival time, dose: 100.0 mg/kg/injection, schedule: Q04DX002 (ip), vehicle: saline with Tween-80 100 % of control | endpoint: median survival time, dose: 200.0 mg/kg/injection, schedule: Q04DX002 (ip), vehicle: saline with Tween-80 100 % of control

Cc1ccc(C2=C(O)C(=O)C(c3ccc(C)cc3)=C(O)C2=O)cc1
inactive: [1] 105 % of control | [2] 102 % of control

O=S(=O)(O)C(O)c1cccc2ccccc12 (stereo not drawn)
inactive: [5] 91 % of control | [6] 91 % of control | [7] 94 % of control

O=C(O)CCC(=O)c1ccc(Cl)c(Cl)c1
inactive: [8] 102 % of control | [3] 96 % of control | [5] 98 % of control | [6] 91 % of control
